The results in this text go back to patent US20080249043A1, “Methods and Compositions Involving Protein Kinase C-Delta” (priority 2004, published 2008).

The test system of the experiment is mitochondria from HeLa cells. The experiment in a line: tBid-binding capacity of mitochondria isolated from HeLa cells (FITC-tBid(G94E)). Format: cell-based. The note with it: 5 μM AD198 4 h, versus DMSO-treated control cells. As to the method: (a) Increased tBid-binding capacity by AD198. Mitochondria were isolated from HeLa cells treated with 5 μM AD198 or DMSO as control for 4 h. Mitochondria (50 μg by protein) were incubated with 0, 10, 20, 60 and 100 ng/μl FITC-tBid(G94E) in total volume 50 μl for […] followed by washing to remove unbounded probes. The fluorescent intensity was quantified with Bio-Tek microplate reader. Error bars indicate standard deviations of three independent experiments. (b) Dose response with mitochondria. Various amounts of mitochondria in (a) were incubated with 10 ng/μl tBid(G94E)-FITC as in (a). The fluorescent intensity of the washed mitochondria was quantified with Bio-Tek microplate reader. (c) Expression of PLS3 or PLS3(T21D) in selected HeLa cells. […] The tBid-binding capacity of the mitochondria from each cells were analyzed as in (a). […] Mitochondria were isolated from cells in (c) and analyzed as in (b).
Analysis of the tBid-binding capacity of mitochondria—Isolated mitochondria were incubated with FITC-tBid(G94E) in 50 μl reaction buffer (250 mM sucrose, 20 mM HEPES, 10 mM KCl, 3 mM KH2PO4, 1.5 mM MgCl2, 1 mM EGTA, 0.5% mg/ml BSA, PH 7.4) for 30 min at room temperature. Mitochondria were pelleted at 10,000×g and washed extensively with the reaction buffer to remove unbound FITC-tBid(G94E) and the fluorescence intensity was quantified with Bio-Tek microplate reader.

Regarding `CCCCC(=O)OCC(=O)[C@]1(O)Cc2c(O)c3c(c(O)c2[C@@H](O[C@H]2C[C@H](NCc4ccccc4)[C@H](O)[C@H](C)O2)C1)C(=O)c1c(OC)cccc1C3=O` [AD198, N-benzyladriamycin-14-valerate], the “tBid-binding capacity of mitochondria” value is “significantly higher tBid-binding capacity”.
